Experimental findings from patent US10966998B2, “Cancer therapy via a combination of epigenetic modulation and immune modulation” (The Johns Hopkins University, priority 2013, dated 2021) are described below.

Each structure is given as a SMILES string. “Also recorded” adds a separate entry of the source.

Test [1] deals with cell surface PD-L1 in NSCLC lines H838 and H1299. Nature of the test: Flow cytometry (FACS) of cell surface proteins after AZA treatment. Type of test: cell-based, human. As to conditions: day 10. The method, then:
Frozen cells were thawed in 37 degrees Celsius and washed once with flow-washing buffer. Aliquots of single-cell suspension were then stained with fluorescent-labeled antibodies for 15 mins at room temperature. Each sample was washed twice and re-suspended in flow-washing buffer and analyzed by FACSCalibur. The following antibodies were used: CD274 (12-5983-42 Ebiosciences), HLA abc(12-9983-42 Ebiosciences), CD276(331606 Biolegend), CD119(558934 BD), B2 microblogumin(551337BD), CD58(555921BD). Changes between AZA treated and mock cells were calculated using mean fluorescence intensities (MFI) and the formula log 2([(MFIantibody, treated)−(MFIisotype, treated)]/[(MFIantibody, mock)−(MFIisotype, mock)]).
(§1) A previously validated pre-clinical model was employed to examine how AZA alters expression of key pathways in NSCLC cell lines.(29) Cells were treated in vitro with 500 nM AZA for 72 hours then harvested immediately after withdrawal of drug and again one week later for genome wide methylation and expression studies.

The subject of a further test is NSCLC cell lines. Nature of the test: Genome-wide expression (Agilent arrays, GSEA) and DNA methylation of cell lines treated with AZA. The format is cell-based, human.
Excerpt: For in vitro DNA methylation values, DNA was extracted from cell lines that were either untreated or treated with AZA at day 3, at the end of treatment, and day 10 (7 days post end of treatment) and analyzed by the Illumina Infinium HumanMethylation450 BeadChips (Illumina, Inc., San Diego, Calif., USA). Raw data were imported into R using the “methylumi” package from Bioconductor (22). Data points for probes with detection p-value >0.05 were masked as NA. Δ beta values (Δ beta value=beta value AZA−beta value Mock) were calculated and used to make boxplots. Heat maps were made similarly like those for the TCGA data using informative probes defined by the TCGA data.
For in vitro RNA extracted from cell lines treated with AZA, analyses were done at exactly the same time points as for DNA methylation above. Analyses from wild type colon cancer, HCT116 cells, and genetic knockout counterparts for DNA methyltransferases (DKO cells) were also performed. Expression microarrays were carried out using Agilent Human 4×44K expression arrays (Agilent Technologies, Santa Clara, Calif., USA, Cat#: G4112F). Within-array and between-array normalization was performed using Loess and Aquantile normalization, respectively (23). Median of the M values (M value Expression=log 2 [AZA/Mock] OR log 2 [DKO/HCT116]) was determined for multiple probes associated with the same gene.
For each of the eight lung cancer cell lines (H838, H1299, H358, H1270, A549, H460, HCC4006, HCC827) a ranked gene list was created (genes were sorted by decreasing M value). These eight ranked gene lists were entered in the GSEA tool (51-52) and the enrichment of both Kegg (53) and Reactome (54) pathways in these lists was calculated (default parameters). A gene set was selected when it was enriched in any of the eight cell lines (p value <0.05 and false discovery rate <0.25). The normalized enrichment scores (NES) for the gene sets in each cell line were used to create the heat maps. When a certain gene set was not significant in a cell line, it was assigned a NES of 0.
Expression and methylation data were analyzed to find genes whose re-expression was linked to demethylation after AZA treatment. Genes were selected based on a set of cut-offs, both for the methylation and expression values: A gene was considered to be re-expressed when at day 3 or day 10 the median M value of all the probes linked to that gene was higher than 0.5. Infinium probes were analyzed separately at their distances from the transcription start site for each gene examined. […] Only probes that were associated with a CpG island and that were located within 1000 bp upstream and 1000 bp downstream of the transcription start site were used in the analyses. The probes that passed these filters were validated using the TCGA methylation and expression data (see the definition of informative probes in the “Infinium DNA Methylation Data” section of Methods). […] To better understand the biological implications of the re-expressed genes, the gene lists were searched for transcription factors. Two human transcription factor lists obtained from Ravasi et al. (25) and Vaquerizas et al. (26, 27) were combined and the resulting list was matched to the lists of demethylated and re-expressed genes.
as §1

Test [2] relates to epithelial cell lines and AML cell lines. As to the kind of experiment: Gene expression in tumor-derived cell lines with AZA treatment (FIG. 2). The format is cell-based.

Consider `Nc1ncn([C@@H]2O[C@H](CO)[C@@H](O)[C@H]2O)c(=O)n1` [AZA, 5-azacytidine], for which the “cell surface PD-L1 protein level” value in test [1] is on record as “up-regulated; also recorded: increased”. For the same compound, the “immune-related pathways by Gene Set Enrichment Analysis” value with NSCLC cell lines (500 nM AZA for 72 hours, NSCLC cell lines) is on record as “up-regulation of multiple immune-related pathways”. Besides, the IRAK3 expression result with NSCLC cell lines (H838 cells) is recorded as “up-regulated”. In addition, the “number of genes 4-fold or more up-regulated” value in the test with NSCLC cell lines (H2170 cells, day 10) worked out at 114 genes. In addition, the IRF7 expression increase in the test on NSCLC cell lines (LUSC cell line H2170) amounted to 9 fold. Also, in the test on NSCLC cell lines (NSCLC cell lines), the “CD80 and CD86 expression” value is “not altered”; the “number of genes with high baseline promoter CpG island methylation, demethylation of 25% or more and expression increased 1.4-fold or greater” value is “Approximately 300 genes”. Further, in the test on NSCLC cell lines (NSCLC lines), the IFI27 expression result is recorded as “up-regulated”; the “MAVS (antiapoptotic gene) expression” value is on record as “down-regulation”; the “interferon-γ receptor (IFNGR1) and STAT gene (incl. STAT1) expression” value is given as “up-regulation”; the “transcripts of HLA Class I antigens, B2M, CD58, TAP1, PMSB9 and PSMB8” value is “upregulates”. The γ-interferon expression entry in the test on NSCLC cell lines (NSCLC lines) is “not induced”. Further, in the test with NSCLC cell lines (especially cell line H838), the “antiapoptotic genes BCL2 and BIRC5 (SURVIVIN) expression” value is “decreases”; the autophagy gene expression result was “increases”. Further, in the test with NSCLC cell lines (several NSCLC cell lines), the PD-L1 transcript level entry is “up-regulated”. In addition, the “gene expression changes with AZA treatment” value in test [2] is on record as “pro-inflammatory changes”.
